What was measured:
[1] = biological target: T1, Serine/threonine-protein kinase Chk1 (Homo sapiens) (UniProt O14757); settings: at 10 µM
T1 sequence (whole entry): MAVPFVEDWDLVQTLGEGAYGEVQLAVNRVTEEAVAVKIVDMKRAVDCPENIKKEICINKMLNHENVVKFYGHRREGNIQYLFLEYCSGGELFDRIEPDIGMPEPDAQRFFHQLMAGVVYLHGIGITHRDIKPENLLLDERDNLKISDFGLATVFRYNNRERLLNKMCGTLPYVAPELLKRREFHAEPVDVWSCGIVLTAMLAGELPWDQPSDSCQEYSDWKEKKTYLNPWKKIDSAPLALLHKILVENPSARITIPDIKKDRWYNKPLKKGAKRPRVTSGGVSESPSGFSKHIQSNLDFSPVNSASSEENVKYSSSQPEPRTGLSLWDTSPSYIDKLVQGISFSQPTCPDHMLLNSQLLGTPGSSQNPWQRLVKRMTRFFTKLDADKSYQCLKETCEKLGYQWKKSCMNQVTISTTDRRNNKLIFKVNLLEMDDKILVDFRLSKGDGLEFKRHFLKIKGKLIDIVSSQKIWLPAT

[2] = biological target: T2, Interleukin-1 receptor-associated kinase 3 (Homo sapiens) (UniProt Q9Y616); experiment: Selectivity interaction (KinomeScan (DiscoverX)) EUB0000666a IRAK3; settings: at 10 µM
T2 sequence (whole entry): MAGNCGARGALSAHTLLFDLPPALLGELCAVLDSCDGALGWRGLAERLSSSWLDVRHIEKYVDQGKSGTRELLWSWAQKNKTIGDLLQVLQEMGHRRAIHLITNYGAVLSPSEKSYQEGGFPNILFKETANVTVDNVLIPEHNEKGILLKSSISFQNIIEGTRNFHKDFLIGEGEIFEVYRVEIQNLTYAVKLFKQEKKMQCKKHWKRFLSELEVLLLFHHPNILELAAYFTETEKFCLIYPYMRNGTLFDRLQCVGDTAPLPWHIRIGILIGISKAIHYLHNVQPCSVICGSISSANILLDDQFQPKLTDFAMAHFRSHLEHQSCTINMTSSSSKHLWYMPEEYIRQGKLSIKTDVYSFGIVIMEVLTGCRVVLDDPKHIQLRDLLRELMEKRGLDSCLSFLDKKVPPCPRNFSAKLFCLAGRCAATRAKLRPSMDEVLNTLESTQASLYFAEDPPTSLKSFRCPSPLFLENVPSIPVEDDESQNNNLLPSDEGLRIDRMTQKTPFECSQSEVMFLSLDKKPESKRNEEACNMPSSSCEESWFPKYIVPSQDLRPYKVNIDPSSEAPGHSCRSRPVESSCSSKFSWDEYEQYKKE

[3] = biological target: T3, Cyclin-G-associated kinase (Homo sapiens) (UniProt O14976); settings: at 10 µM
T3 sequence (whole entry): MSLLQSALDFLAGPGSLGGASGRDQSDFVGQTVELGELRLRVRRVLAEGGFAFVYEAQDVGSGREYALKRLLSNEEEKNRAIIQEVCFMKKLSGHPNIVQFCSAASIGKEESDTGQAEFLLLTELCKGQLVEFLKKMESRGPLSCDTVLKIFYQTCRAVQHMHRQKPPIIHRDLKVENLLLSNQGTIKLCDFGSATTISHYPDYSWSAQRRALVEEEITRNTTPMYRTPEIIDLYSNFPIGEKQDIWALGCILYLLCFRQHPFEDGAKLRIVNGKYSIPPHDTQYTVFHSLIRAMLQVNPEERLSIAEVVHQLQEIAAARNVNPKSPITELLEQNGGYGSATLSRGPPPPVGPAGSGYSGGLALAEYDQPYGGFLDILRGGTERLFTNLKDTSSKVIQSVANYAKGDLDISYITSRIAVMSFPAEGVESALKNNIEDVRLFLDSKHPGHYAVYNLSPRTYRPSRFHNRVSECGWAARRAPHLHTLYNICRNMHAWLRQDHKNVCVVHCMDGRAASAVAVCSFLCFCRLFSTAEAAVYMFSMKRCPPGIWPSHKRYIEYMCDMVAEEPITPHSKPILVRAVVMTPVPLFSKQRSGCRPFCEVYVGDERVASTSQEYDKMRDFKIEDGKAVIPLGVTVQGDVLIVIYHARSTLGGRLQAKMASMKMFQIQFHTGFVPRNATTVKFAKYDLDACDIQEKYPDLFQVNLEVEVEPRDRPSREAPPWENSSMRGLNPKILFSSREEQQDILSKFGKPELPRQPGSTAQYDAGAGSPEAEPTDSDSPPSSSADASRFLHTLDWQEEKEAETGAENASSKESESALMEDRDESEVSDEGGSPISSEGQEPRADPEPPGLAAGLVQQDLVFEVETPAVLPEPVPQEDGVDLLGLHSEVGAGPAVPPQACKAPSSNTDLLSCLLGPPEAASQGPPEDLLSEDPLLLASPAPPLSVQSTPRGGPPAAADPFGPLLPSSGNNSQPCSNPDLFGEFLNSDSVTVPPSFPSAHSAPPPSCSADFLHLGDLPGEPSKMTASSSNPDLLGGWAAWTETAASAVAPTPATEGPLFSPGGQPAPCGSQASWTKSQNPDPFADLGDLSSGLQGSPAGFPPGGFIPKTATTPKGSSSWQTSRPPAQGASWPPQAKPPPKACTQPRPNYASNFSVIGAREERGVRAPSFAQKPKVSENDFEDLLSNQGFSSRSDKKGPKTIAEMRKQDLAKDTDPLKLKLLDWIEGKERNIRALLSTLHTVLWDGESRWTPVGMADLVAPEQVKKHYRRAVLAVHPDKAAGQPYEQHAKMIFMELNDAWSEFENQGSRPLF

[4] = biological target: Casein kinase II subunit alpha' (Homo sapiens) (UniProt P19784); experiment: Selectivity interaction (Kinase panel (literature)) EUB0001199aCl CSNK2A2; settings: at 1 µM
[5] = biological target: Ribosomal protein S6 kinase alpha-6 (Homo sapiens, UniProt Q9UK32); experiment: Selectivity interaction (KinomeScan (DiscoverX)) EUB0000607a RPS6KA6; settings: at 10 µM
[6] = biological target: T2, Interleukin-1 receptor-associated kinase 3 (Homo sapiens); experiment: Selectivity interaction (ActivX KiNativ screen (kinase selectivity in THP-1 cell lysates)) EUB0000639a IRAK3; type: subcellular; settings: lysate, at 0.01 µM

Sequence of Casein kinase II subunit alpha' (Homo sapiens) (P19784 whole entry, looked up): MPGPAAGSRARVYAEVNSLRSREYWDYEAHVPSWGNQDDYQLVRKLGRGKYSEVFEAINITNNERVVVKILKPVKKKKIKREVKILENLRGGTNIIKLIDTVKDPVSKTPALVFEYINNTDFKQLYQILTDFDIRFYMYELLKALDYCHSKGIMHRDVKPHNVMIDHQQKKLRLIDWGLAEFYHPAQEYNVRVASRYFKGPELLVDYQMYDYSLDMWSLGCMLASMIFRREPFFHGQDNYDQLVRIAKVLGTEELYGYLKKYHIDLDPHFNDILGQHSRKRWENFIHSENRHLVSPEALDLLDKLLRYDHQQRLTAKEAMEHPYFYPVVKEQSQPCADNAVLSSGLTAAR
Sequence of Ribosomal protein S6 kinase alpha-6 (Q9UK32 whole entry): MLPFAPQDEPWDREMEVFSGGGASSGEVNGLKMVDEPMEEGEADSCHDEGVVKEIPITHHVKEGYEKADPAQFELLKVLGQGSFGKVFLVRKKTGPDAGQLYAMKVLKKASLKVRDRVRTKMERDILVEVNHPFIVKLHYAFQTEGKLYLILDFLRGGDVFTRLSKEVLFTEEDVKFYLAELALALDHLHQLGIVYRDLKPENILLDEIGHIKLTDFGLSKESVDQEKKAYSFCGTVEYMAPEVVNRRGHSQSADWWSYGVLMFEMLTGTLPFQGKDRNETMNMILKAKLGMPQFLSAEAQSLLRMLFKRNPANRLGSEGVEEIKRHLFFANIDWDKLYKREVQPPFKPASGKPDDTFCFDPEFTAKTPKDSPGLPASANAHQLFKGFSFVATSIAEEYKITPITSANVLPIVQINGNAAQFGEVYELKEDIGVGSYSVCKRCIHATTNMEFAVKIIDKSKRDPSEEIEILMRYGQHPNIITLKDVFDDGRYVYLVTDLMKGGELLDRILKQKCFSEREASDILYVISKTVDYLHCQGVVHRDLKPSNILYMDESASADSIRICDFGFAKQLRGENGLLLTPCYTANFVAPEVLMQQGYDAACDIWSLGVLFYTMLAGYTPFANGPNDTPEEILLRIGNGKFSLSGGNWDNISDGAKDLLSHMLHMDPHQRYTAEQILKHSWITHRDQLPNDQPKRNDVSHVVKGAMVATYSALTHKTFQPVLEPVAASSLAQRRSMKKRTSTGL

COCC(=O)NC/C=C/c1ccc2ncnc(Nc3ccc(Oc4ccc(C)nc4)c(C)c3)c2c1 [CP-724714]
% of control [1]: 90%

O=C(NOC[C@H](O)CO)c1ccc(F)c(F)c1Nc1ccc(I)cc1F
% of control [2]: 100%

Cc1cc([C@@H](C)Nc2ccccc2C(=O)O)c2nc(N3CCOCC3)cc(=O)n2c1 [AZD-6482]
% of control [3]: 75%

CN1Cc2nccc(-c3cn(C)nc3-c3ccc(F)cc3)c2C1=O
% of inhibition [4]: 2%

CNC(=O)Nc1ccc(-c2nc(N3CC4CCC(C3)O4)c3cnn(C4CCC5(CC4)OCCO5)c3n2)cc1
% of control [5]: 87%

CC[C@@H]1[C@H](F)C(=O)N[C@@H]1COc1nccc2cc(C(N)=O)c(OC)cc12 [ZIMLOVISERTIB]
% of inhibition [6]: -5.3%
